Results as given in US9597331B2, “Therapeutic compositions containing macitentan” (ACTELION PHARMACEUTICALS LTD, priority 2008, dated 2017).

Tested on: pulmonary hypertensive male Wistar rats treated with monocrotaline
Experiment: Acute effect on mean pulmonary arterial pressure in monocrotaline treated rats (monocrotaline model of pulmonary hypertension, variant 2)
Assay type: in vivo, rat
Settings: single administration, 25 to 30 days after monocrotaline, negative area = pressure decreases
Description: Male Wistar rats are purchased from Harlan (Netherlands) and maintained under conditions in accordance with local guidelines (Basel-Landschaft cantonal veterinary office). All rats are housed in climate-controlled conditions with a 12:12 hour light:dark cycle, and had free access to chow and water. A telemetry system is implanted under anaesthesia by inhalation of 2.5% isoflurane (in 70% O2+30% N2O). Under aseptic conditions, a pressure radio-frequency transmitter is implanted into the peritoneal cavity, and a sensing catheter is inserted in the pulmonary artery. The transmitter is sutured to the abdominal musculature and the skin is closed. […]
Four weeks after injection of MCT, the rats become pulmonary hypertensive and the respective effects of a single oral administration of Macitentan, of the compound having prostacyclin receptor (IP) agonist properties and of their combination can be evaluated on mean pulmonary arterial pressure. […]
Mean pulmonary arterial pressure was measured over time. […] Area Under Curve (AUC) was calculated for each group of rats after the oral administration of the different treatment(s) (a positive area being found if the mean pulmonary arterial blood pressure increases and a negative area being found if the mean pulmonary arterial blood pressure decreases).

Compound	AUC (Area Under Curve of mean pulmonary arterial pressure vs time) (NS-304 30 mg/kg per os)	AUC (Area Under Curve of mean pulmonary arterial pressure vs time) (macitentan 10 mg/kg per os)
CC(C)N(CCCCOCC(=O)NS(C)(=O)=O)c1cnc(-c2ccccc2)c(-c2ccccc2)n1 [NS-304, 2-{4-[(5,6-diphenylpyrazin-2-yl)(isopropyl)amino]butoxy}-N-(methylsulfonyl)acetamide]	−99 ± 128	
CCCNS(=O)(=O)Nc1ncnc(OCCOc2ncc(Br)cn2)c1-c1ccc(Br)cc1 [macitentan]		−381 ± 147
